Target: IRAK4 (Homo sapiens (Human), UniProt Q9NWZ3)
Experiment: IRAK4 Inhibition Assay
Type: biochemical
Conditions: ATP 500 μM; IRAK4 0.6 nM
Method: The assays were performed in U-bottom 384-well plates. The final assay volume was 30 μL prepared from 15 μL additions of enzyme and substrates (fluoresceinated peptide and ATP) and test compounds in assay buffer (20 mM HEPES pH 7.2, 10 mM MgCl2, 0.015% Brij 35 and 4 mM DTT). The reaction was initiated by the combination of IRAK4 with substrates and test compounds. The reaction mixture was incubated at room temperature for 60 min. and terminated by adding 45 μL of 35 mM EDTA to each sample. The reaction mixture was analyzed on the Caliper LABCHIP® 3000 (Caliper, Hopkinton, Mass.) by electrophoretic separation of the fluorescent substrate and phosphorylated product. Inhibition data were calculated by comparison to no enzyme control reactions for 100% inhibition and vehicle-only reactions for 0% inhibition. The final concentrations of reagents in the assays are ATP, 500 μM; FL-IPTSPITTTYFFFKKK peptide 1.5 μM; IRAK4, 0.6 nM; and DMSO, 1.6%.

Sequence of IRAK4 (Q9NWZ3 whole entry, species assumed): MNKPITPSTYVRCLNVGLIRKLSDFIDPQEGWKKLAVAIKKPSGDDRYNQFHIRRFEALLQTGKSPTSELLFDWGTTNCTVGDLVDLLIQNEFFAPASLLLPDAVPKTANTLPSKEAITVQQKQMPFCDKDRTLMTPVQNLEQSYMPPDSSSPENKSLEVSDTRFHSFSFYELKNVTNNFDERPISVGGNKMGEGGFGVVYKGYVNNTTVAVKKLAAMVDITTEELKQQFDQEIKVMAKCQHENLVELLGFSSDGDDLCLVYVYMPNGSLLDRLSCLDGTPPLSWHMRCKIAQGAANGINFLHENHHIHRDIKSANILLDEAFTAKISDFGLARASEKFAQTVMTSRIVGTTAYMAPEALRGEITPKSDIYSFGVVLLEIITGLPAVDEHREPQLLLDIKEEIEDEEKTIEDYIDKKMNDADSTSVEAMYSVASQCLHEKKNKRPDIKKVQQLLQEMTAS

Structure (SMILES)	IC50
CC(C)Nc1cc(-n2ncc3cc(C#N)cnc32)ncc1-c1cn(-c2cccnc2)nn1 [Example 174, 1-(4-(isopropylamino)-5-(1-(pyridin-3-yl)-1H-1,2,3-triazol-4-yl)pyridin-2-yl)-1H-pyrazolo[3,4-b]pyridine-5-carbonitrile]	17 nM
CCCc1cn(-c2cnc(-n3cnc4cnc(N)nc43)cc2NC(C)C)nn1 [Example 279, 9-(4-(isopropylamino)-5-(4-propyl-1H-1,2,3-triazol-1-yl)pyridin-2-yl)-9H-purin-2-amine]	17 nM
CCCc1cn(-c2cnc(-n3cnc4cc(C#N)cnc43)cc2NC2COC2)nn1 [Example 277, 3-(4-(oxetan-3-ylamino)-5-(4-propyl-1H-1,2,3-triazol-1-yl)pyridin-2-yl)-3H-imidazo[4,5-b]pyridine-6-carbonitrile]	87 nM
CC(C)Nc1cc(-n2ncc3cc(C#N)cnc32)ncc1-n1cc(-c2ccccc2)nn1 [Example 297, 1-(4-(isopropylamino)-5-(4-phenyl-1H-1,2,3-triazol-1-yl)pyridin-2-yl)-1H-pyrazolo[3,4-b]pyridine-5-carbonitrile]	28 nM
CC(C)Nc1cc(-n2ncc3cc(Cl)cnc32)ncc1-c1cn(C2COC2)nn1 [Example 26, 2-(5-chloro-1H-pyrazolo[3,4-b]pyridin-1-yl)-N-isopropyl-5-(1-(oxetan-3-yl)-1H-1,2,3-triazol-4-yl)pyridin-4-amine]	27 nM
CC(C)Nc1cc(-n2ncc3cc(C#N)cnc32)ncc1-n1ccc(C(F)(F)F)n1 [Example 247, 1-(4-(isopropylamino)-5-(3-(trifluoromethyl)-1H-pyrazol-1-yl)pyridin-2-yl)-1H-pyrazolo[3,4-b]pyridine-5-carbonitrile]	202 nM
CC(C)Nc1cc(-n2ncc3cc(C#N)cnc32)ncc1-c1cn(C(C)(C)C)nn1 [Example 18, 1-(5-(1-(tert-butyl)-1H-1,2,3-triazol-4-yl)-4-(isopropylamino)pyridin-2-yl)-1H-pyrazolo[3,4-b]pyridine-5-carbonitrile]	17 nM
CC(C)Nc1cc(-n2ncc3cc(C#N)cnc32)ncc1-c1cn(CCCc2ccccc2)cn1 [Example 241, 1-(4-(isopropylamino)-5-(1-(3-phenylpropyl)-1H-imidazol-4-yl)pyridin-2-yl)-1H-pyrazolo [3,4-b]pyridine-5-carbonitrile]	35 nM
CC(O)Cc1cn(-c2cnc(-n3ncc4cc(C#N)cnc43)cc2NC2CC2)nn1 (single isomer, unassigned) [Example 274, 1-(4-(cyclopropylamino)-5-(4-(2-hydroxypropyl)-1H-1,2,3-triazol-1-yl)pyridin-2-yl)-1H-pyrazolo[3,4-b]pyridine-5-carbonitrile]	23 nM
CC(C)Nc1cc(-n2ncc3cc(C#N)cnc32)ncc1-c1cn(-c2ccccc2C#N)nn1 [Example 173, 1-(5-(1-(2-cyanophenyl)-1H-1,2,3-triazol-4-yl)-4-(isopropylamino)pyridin-2-yl)-1H-pyrazolo [3,4-b]pyridine-5-carbonitrile]	26 nM
CC(C)Nc1cc(-n2ncc3cc(C#N)cnc32)ncc1-n1cc(CN)nn1 [Example 310, 1-(5-(4-(aminomethyl)-1H-1,2,3-triazol-1-yl)-4-(isopropylamino)pyridin-2-yl)-1H-pyrazolo[3,4-b]pyridine-5-carbonitrile]	108 nM
CC(C)Nc1cc(-n2ncc3cc(C#N)cnc32)ncc1-c1cn(CC(=O)N2CCOCC2)cn1 [Example 231, 1-(4-(isopropylamino)-5-(1-(2-morpholino-2-oxoethyl)-1H-imidazol-4-yl)pyridin-2-yl)-1H-pyrazolo[3,4-b]pyridine-5-carbonitrile]	21 nM
CC(F)Cc1cn(-c2cnc(-n3cnc4cnc(N)nc43)cc2NC(C)C)nn1 (single isomer, unassigned) [Example 293, 9-(5-(4-(2-fluoropropyl)-1H-1,2,3-triazol-1-yl)-4-(isopropylamino)pyridin-2-yl)-9H-purin-2-amine]	28 nM
CC(C)Nc1cc(-n2ncc3cc(C#N)cnc32)ncc1-n1ccc(C#N)n1 [Example 248, 1-(5-(3-cyano-1H-pyrazol-1-yl)-4-(isopropylamino)pyridin-2-yl)-1H-pyrazolo[3,4-b]pyridine-5-carbonitrile]	66 nM
CC(C)Nc1cc(-n2ncc3cc(C#N)cnc32)ncc1-n1cc(C2CC2)nn1 [Example 300, 1-(5-(4-cyclopropyl-1H-1,2,3-triazol-1-yl)-4-(isopropylamino)pyridin-2-yl)-1H-pyrazolo[3,4-b]pyridine-5-carbonitrile]	22 nM
CC(C)Nc1cc(-n2ncc3cncnc32)ncc1-c1cnn(CC(F)(F)F)c1 [Example 262, N-isopropyl-2-(1H-pyrazolo[3,4-d]pyrimidin-1-yl)-5-(1-(2,2,2-trifluoroethyl)-1H-pyrazol-4-yl)pyridin-4-amine]	288 nM

Structure (SMILES)	IC50
COc1ccc(OCC(O)Cn2cc(-c3cnc(-n4ncc5cc(C#N)cnc54)cc3NC(C)C)nn2)cc1 (stereo not shown) [Example 136, 1-(5-(1-(2-hydroxy-3-(4-methoxyphenoxy)propyl)-1H-1,2,3-triazol-4-yl)-4-(isopropylamino)pyridin-2-yl)-1H-pyrazolo[3,4-b]pyridine-5-carbonitrile]	27 nM
CC(C)Nc1cc(-n2cnc3cc(C#N)cnc32)ncc1-c1cn(CC(C)(C)O)nn1 [Example 67, 3-(5-(1-(2-hydroxy-2-methylpropyl)-1H-1,2,3-triazol-4-yl)-4-(isopropylamino)pyridin-2-yl)-3H-imidazo[4,5-b]pyridine-6-carbonitrile]	32 nM
CC(C)Nc1cc(-n2ncc3cc(C#N)cnc32)ncc1-n1cc(-c2ccncc2)nn1 [Example 326, 1-(4-(isopropylamino)-5-(4-(pyridin-4-yl)-1H-1,2,3-triazol-1-yl)pyridin-2-yl)-1H-pyrazolo [3,4-b]pyridine-5-carbonitrile]	28 nM
CC(C)Nc1cc(-n2cnc3cc(C#N)cnc32)ncc1-c1cn(C2CCOCC2)nn1 [Example 24, 3-(4-(isopropylamino)-5-(1-(tetrahydro-2H-pyran-4-yl)-1H-1,2,3-triazol-4-yl)pyridin-2-yl)-3H-imidazo[4,5-b]pyridine-6-carbonitrile]	3 nM
CC(C)Nc1cc(-n2cnc3cc(C#N)cnc32)ncc1-c1cn(C(C)(C)C)nn1 [Example 23, 3-(5-(1-(tert-butyl)-1H-1,2,3-triazol-4-yl)-4-(isopropylamino)pyridin-2-yl)-3H-imidazo[4,5-b]pyridine-6-carbonitrile]	96 nM
CC(C)Nc1cc(-n2ncc3cc(C#N)cnc32)ncc1-c1cn(-c2cccnc2)cn1 [Example 224, 1-(4-(isopropylamino)-5-(1-(pyridin-3-yl)-1H-imidazol-4-yl)pyridin-2-yl)-1H-pyrazolo[3,4-b]pyridine-5-carbonitrile]	87 nM
CC(C)Nc1cc(-n2ncc3cc(C#N)cnc32)ncc1-c1cn(Cc2ccc(F)cc2)nn1 [Example 112, 1-(5-(1-(4-fluorobenzyl)-1H-1,2,3-triazol-4-yl)-4-(isopropylamino)pyridin-2-yl)-1H-pyrazolo[3,4-b]pyridine-5-carbonitrile]	76 nM
CC(C)Nc1cc(-n2ncc3cc(C#N)cnc32)ncc1-c1cnn(C2CCOCC2)c1 [Example 257, 1-(4-(isopropylamino)-5-(1-(tetrahydro-2H-pyran-4-yl)-1H-pyrazol-4-yl)pyridin-2-yl)-1H-pyrazolo[3,4-b]pyridine-5-carbonitrile]	20 nM
COC(=O)c1ccccc1-n1cc(-c2cnc(-n3ncc4cc(C#N)cnc43)cc2NC(C)C)nn1 [Example 175, methyl 2-(4-(6-(5-cyano-1H-pyrazolo[3,4-b]pyridin-1-yl)-4-(isopropylamino)pyridin-3-yl)-1H-1,2,3-triazol-1-yl)benzoate]	35 nM
CCn1cc(-c2cnc(-n3cnc4cc(C#N)cnc43)cc2NC(C)C)nn1 [Example 38, 3-(5-(1-ethyl-1H-1,2,3-triazol-4-yl)-4-(isopropylamino)pyridin-2-yl)-3H-imidazo[4,5-b]pyridine-6-carbonitrile]	10 nM
CC(C)Nc1cc(-n2ncc3cc(C#N)cnc32)ncc1-n1cc(C(C)(C)O)nn1 [Example 298, 1-(5-(4-(2-hydroxypropan-2-yl)-1H-1,2,3-triazol-1-yl)-4-(isopropylamino)pyridin-2-yl)-1H-pyrazolo[3,4-b]pyridine-5-carbonitrile]	194 nM
CCCc1cn(-c2cnc(-n3ncc4cncnc43)cc2Nc2cnn(CC(F)F)c2)nn1 [Example 271, N-(1-(2,2-difluoroethyl)-1H-pyrazol-4-yl)-5-(4-propyl-1H-1,2,3-triazol-1-yl)-2-(1H-pyrazolo[3,4-d]pyrimidin-1-yl)pyridin-4-amine]	108 nM
CC(C)Nc1cc(-n2ncc3cc(C#N)cnc32)ncc1-c1cn(C2CN(C(c3ccccc3)c3ccccc3)C2)nn1 [Example 100, 1-(5-(1-(1-benzhydrylazetidin-3-yl)-1H-1,2,3-triazol-4-yl)-4-(isopropylamino)pyridin-2-yl)-1H-pyrazolo[3,4-b]pyridine-5-carbonitrile]	235 nM
CCCn1cc(-c2cnc(-n3cnc4cc(C#N)cnc43)cc2NC2CCOCC2)nn1 [Example 50, 3-(5-(1-propyl-1H-1,2,3-triazol-4-yl)-4-((tetrahydro-2H-pyran-4-yl)amino)pyridin-2-yl)-3H-imidazo[4,5-b]pyridine-6-carbonitrile]	5 nM
CC(C)Nc1cc(-n2ncc3cc(C#N)cnc32)ncc1-n1cc(CNC(N)=O)nn1 [Example 313, 1-((1-(6-(5-cyano-1H-pyrazolo[3,4-b]pyridin-1-yl)-4-(isopropylamino)pyridin-3-yl)-1H-1,2,3-triazol-4-yl)methyl)urea]	115 nM

Reference: patent publication US10294229B2, “Heteroaryl substituted aminopyridine compounds” (BRISTOL-MYERS SQUIBB COMPANY, priority 2015, dated 2019)
